Measured values taken from EP2958945B1, “COMBINATION THERAPY INVOLVING ANTIBODIES AGAINST CLAUDIN 18.2 FOR TREATMENT OF CANCER” (Astellas Pharma Inc., priority 2013, dated 2014).

Assays:
Kato III cells [1] = assay: Cell cycle analysis and cell growth, Kato III; assay type: cell-based, human; conditions: for cell cycle arrest: Kato III pretreated for 4 days
Description: Kato III cells, a human gastric tumor cell line, was cultivated in RPMI 1640 medium (Invitrogen) containing 20% FCS (Perbio) and 2 mM Glutamax (Invitrogen) at 37°C and 5% CO2, with or without cytostatic compounds. 5-FU (Neofluor from NeoCorp AG) was tested at a concentration of 10 or 100 ng/ml, and oxaliplatin (Hospira) was tested at a concentration of 50 or 500 ng/ml. […] Cells were harvested with EDTA/trypsin, washed and analysed.
Cell cycle stages were determined based on measurement of cellular DNA content. This allows one to discriminate between cells in the G1-, S- or G2-phase of the cell cycle. In the S-phase DNA duplication occurs whereas in the G2-phase cells grow and prepare for mitosis. Cell cycle analysis was done using the CycleTEST PLUS DNA Reagent Kit from BD Biosciences following the manufacturer's protocol. Flow cytometry acquisition and analysis were performed by using BD FACS CantoII (BD Biosciences) and FlowJo (Tree Star) software.
Kato III cells were pretreated for 4 days with Irinotecan or Docetaxel and analysed for CLDN18.2 expression and cell cycle arrest.

Kato III cells [2] = assay: Viable cells after 3 days pretreatment, Kato III; assay type: cell-based, human; conditions: Kato III pretreated 3 days; Irinotecan 1000 ng/ml, Docetaxel 5 ng/ml, Cisplatin 2000 ng/ml; vs medium cultivated cells
Description: (§1) Peripheral blood mononuclear cells (PBMCs) including NK cells, monocytes, […] or other effector cells from healthy human donors were purified by Ficoll Hypaque density centrifugation. Washed effector cells were seeded in X-Vivo medium. Kato III cells which express CLDN18.2 endogenously and are of gastric origin were used as target cells in this setting. Target cells stably expressed luciferase, lucifer yellow, which is oxidized by viable cells only.

CLDN18.2 [3] = assay: CLDN18.2 expression after 3 days pretreatment, Kato III; assay type: cell-based, human; conditions: Kato III pretreated 3 days; Irinotecan 1000 ng/ml, Docetaxel 5 ng/ml, Cisplatin 2000 ng/ml; vs medium cultivated cells
Kato III cells [4] = assay: IMAB362 induced ADCC on chemotherapy pretreated Kato III; assay type: cell-based, human; conditions: Kato III pretreated 3 days; Irinotecan 1000 ng/ml, Docetaxel 5 ng/ml, Cisplatin 2000 ng/ml
Description: as §1

BxPC3-LVT xenografts = assay: Subcutaneous BxPC3-LVT xenograft model; assay type: in vivo, Hsd:Athymic Nude-Foxn1^nu mice; conditions: up to 100 mg/kg gemcitabine without additional IMAB362 treatment
CLDN18.2 [5] = assay: CLDN18.2 expression after chemotherapeutic pretreatment (RT-PCR, western blot), DANG; assay type: cell-based, human; conditions: Gem 1 ng/ml or Gem 1 ng/ml + Ox 10 ng/ml, 2 days, vs untreated
Description: For RNA isolation from pancreatic cancer cell lines, cells were seeded in 10 cm dishes and grown for 2-3 days until 80% confluent. RNA was isolated according to instructions supplied with the RNeasy® Mini Kit (Qiagen). cDNA preparation was performed following manufacturers instructions provided with the SuperScript® III First Strand kit (Invitrogen). RNA and cDNA samples were stored at -80°C.
Quantitative analysis of CLDN18.2 transcripts was performed by amplifying oligo(dT)-primed cDNAs in a 40 cycle PCR reaction using PCR primers #5054s (5'-[…]-3') and #5060as (5'-[…]-3') differentiating between CLDN18.1 and CLDN18.2 isoforms. The reaction was prepared with SYBR Green (QuantiTect SYBR Green PCR Kit, Qiagen), which intercalates in double stranded DNA. The reactions and measurements were performed using the ABI-PRISM7900 Sequence Detection System instrument and software (Applied Biosystems).
The relative expression levels of CLDN18 transcripts was computed using ΔΔCT calculation with respect to the house keeping gene HPRT.
For isolation of proteins of pancreatic cancer cell lines, cells were seeded in 10 cm dishes and grown for 2-3 days until 80% confluent. […] Protein concentration was measured in a spectrophotometer (Absorption at 280nm) and samples were stored at -80°C until use. […]

DANG [6] = assay: IMAB362-mediated ADCC on chemotherapy pretreated DANG; assay type: cell-based, human; conditions: DANG pretreated 2 days, Gem 1 ng/ml or Gem 1 ng/ml + Ox 10 ng/ml; vs untreated
Description: Pancreatic cancer target cells were seeded two days in advance in flasks to obtain 80-90% confluent cultures on the day ADCC started. […] NUGC-4 sub 10cH11 subE10 Luci#2 cells (8000 cells/well) were seeded in addition as positive controls in all assays. Cells were cultivated for 4-6 h before addition of antibody and purified PBMCs.
PBMCs were prepared from fresh human buffy coat obtained from healthy donors. About 3x 20-25 ml blood was diluted (1:2) with PBS and carefully layered on 4x 15 ml Ficol-Paque Plus (GE Healthcare) in 50 ml Falcon tubes. Gradients were centrifuged (25 min, 700 g). […] The pellets were resuspended in 50 ml PBS/2 mM EDTA and cells were counted. […]
The next day, 10 µl 8% Triton X100/PBS solution was added to the lysis control wells and 10 µl PBS in all other wells. […] Luminescence resulting from the oxidation of […] by the luciferase of viable cells was measured using a microplate-reader (Infinite200, Tecan, Switzerland). Percentage of cellular cytotoxicity was calculated using the following formula: Specific killing (%) = 100−[(RLUsample−RLUtriton)/(RLUmedium ctrl−RLUtriton)×100] […]
On the day ADCC started, the protocol described above was followed and cell surface expression of CLDN18 was determined in FACS analysis as described above.

DANG [7] = assay: Cell cycle analysis, DANG; assay type: cell-based, human; conditions: Gem 2 ng/ml, two days
Description: Cells were plated in six-well plates, and 5-6 hours later chemotherapeutic agents were added for either 24 h 48 h or 3 days. Cells floating in the medium were combined with the adherent cell layer, which was trypsinized. Cells were washed. Either cell cycle analysis was started directly or cell surface staining was done before as described above. Cells are resuspended in 1 ml PBS and added to 3 ml 4% PFA. After 15 min fixation of cells at room temperature cells are pelleted and washed. For RNAse treatment cells were resuspended in 200 µl RNAse (10000 U/ml) plus 0.05% Triton X-100 and incubated for 30 min at 37°C. 1 ml PBS was added and samples were centrifuged and resuspended in 200 µl PBS/PJ 50 µg/ml. At least 30 min later samples were ready to be analyzed by flow cytometry. Cell cycle phase distribution was determined using FlowJo software to analyze DNA content histograms.

MiaPaCa-2-LVT xenografts = assay: Subcutaneous MiaPaCa-2-LVT xenograft model; assay type: in vivo, Hsd:Athymic Nude-Foxn1^nu mice; conditions: up to 100 mg/kg gemcitabine without additional IMAB362 treatment
[8] = system: established MiaPaCa-2-LVT xenograft tumors; assay: Established MiaPaCa-2-LVT xenograft tumors; assay type: in vivo, Hsd:Athymic Nude-Foxn1^nu mice; conditions: gemcitabine 2x 150 mg/kg per week, independent from IMAB362 treatment

For O=c1[nH]cc(F)c(=O)[nH]1 [5-FU, 5-fluoro-1H-pyrimidine-2,4-dione], the “cell cycle phase distribution” value (Kato III cells [1]; Kato III, 5-FU 10 or 100 ng/ml, oxaliplatin 50 or 500 ng/ml, 96 hours) was “blocked predominantly in the S-phase”.

With N.N.[Cl][Pt][Cl] [Cisplatin, cis-diamminedichloroplatinum(II)] the “level of viable cells” value (Kato III cells [2]) was “lower level of viable cells”, the claudin18.2 expression (CLDN18.2 [3]) was “increased” and the “potency of IMAB362 to induce ADCC” value (Kato III cells [4]) was “augmented”.

With CC(=O)O[C@@]12CO[C@@H]1C[C@H](O)[C@@]1(C)C(=O)[C@H](O)C3=C(C)[C@@H](OC(=O)[C@H](O)[C@@H](NC(=O)OC(C)(C)C)c4ccccc4)C[C@@](O)([C@@H](OC(=O)c4ccccc4)[C@H]21)C3(C)C [Docetaxel, 1,7β,10β-trihydroxy-9-oxo-5β,20-epoxytax-11-ene-2α,4,13α-triyl 4-acetate 2-benzoate 13-{(2R,3S)-3-[(tert-butoxycarbonyl)-amino]-2-hydroxy-3-phenylpropanoate}] the cell cycle arrest (Kato III cells [1]) was “cell cycle arrest in the G2-phase”, the “level of viable cells” value (Kato III cells [2]) was “lower level of viable cells” and the claudin18.2 expression (CLDN18.2 [3]) was “increased”. For the same molecule, the “potency of IMAB362 to induce ADCC” value (Kato III cells [4]) was “augmented”.

With CCc1c2c(nc3ccc(OC(=O)N4CCC(N5CCCCC5)CC4)cc13)-c1cc3c(c(=O)n1C2)COC(=O)[C@]3(O)CC [Irinotecan, (S)-4,11-diethyl-3,4,12,14-tetrahydro-4-hydroxy-3,14-dioxo1H-pyrano[3',4':6,7]-indolizino[1,2-b]quinolin-9-yl-[1,4'-bipiperidine]-1'-carboxylate] the cell cycle arrest (Kato III cells [1]) was “cell cycle arrest in the S/G2-phase”, the “level of viable cells” value (Kato III cells [2]) was “lower level of viable cells” and the “potency of IMAB362 to induce ADCC” value (Kato III cells [4]) was “augmented”.

For Nc1ccn([C@@H]2O[C@H](CO)[C@@H](O)C2(F)F)c(=O)n1 [gemcitabine, 4-amino-1-(2-deoxy-2,2-difluoro-β-D-erythro-pentofuranosyl)pyrimidin-2(1H)-one], the “therapeutic effect on xenograft” value (BxPC3-LVT xenografts) was “no significant therapeutic effect”, the “mRNA and protein levels of CLDN18.2” value (CLDN18.2 [5]) was “increased mRNA and protein levels” and the “susceptibility for IMAB362 mediated ADCC” value (DANG [6]) was “higher susceptibility”. For the same molecule, the cell cycle arrest (DANG [7]) was “cell cycle arrest in S-Phase”, the “therapeutic effect on xenograft” value (MiaPaCa-2-LVT xenografts) was “no significant therapeutic effect” and the tumor growth [8] was “strongly inhibited in tumor growth”.
